Measurements published in patent publication US5607929A, “Antiviral dibenzothiazepinone derivatives” (Glaxo Wellcome Inc., priority 1991, dated 1997).
Where two headings read alike, the source gives them in different places.

Test system: HIV
Experiment: HIV (MT4 assay), in vitro antiviral activity
Format: cell-based

Compound	IC50 (Human immunodeficiency virus 1) [nM]	IC50 [nM]
O=C1Nc2ccccc2Sc2c1cccc2C(F)(F)F [Example 7, 4-Trifluoromethyl-10,11-dihydrodibenzo[b,f][1,4]thiazepin-11-one]	2500	
CN1C(=O)c2cccc(C(F)(F)F)c2Sc2ccccc21 [Example 10, 10-Methyl-4-trifluoromethyl-10,11-dihydrodibenzo[b,f][1,4]thiazepin-11-one]	2800	
CN1C(=O)c2cccc(F)c2Sc2ccccc21 [17(i), 4-Fluoro-10-methyl-10,11-dihydrobenzo[b,f][1,4] thiazepin-11-one]	700	
4-fluorodibenzothiazepin-11(10H)-one-5,5-dioxide [15(iv)]		1800
COc1ccc2c(c1)S(=O)(=O)c1ccccc1C(=O)N2 [Example 22, 7-Methoxy-10,11-dihydrodibenzo[b,f][1,4]thiazepin-11-one-5,5-dioxide]	12800	
O=C1Nc2ccccc2Sc2c(F)cccc21 [14(iv), 4-Fluoro-10,11-dihydrobenzo[b,f][1,4]thiazepin-11-one]	1100	
CSc1cccc2c1Sc1ccccc1NC2=O [Example 19, 4-Thiomethyl-10,11-dihydrodibenzo[b,f][1,4]thiazepin-11-one]	2300	
O=C1Nc2ccccc2S(=O)(=O)c2ccccc21 [Example 5, 10,11-Dihydrodibenzo[b,f][1,4]thiazepin-11-one-5,5-dioxide]	13000	
